Reference: patent publication US8247351B2, “Insecticidal compositions having improved effect” (Bayer Cropscience AG, priority 2005, dated 2012)
Blank lines part the entries; values can stand above or below the compound they belong to.

Tests used:
[1] = system: Myzus persicae; assay: Myzus persicae test, Example B (spraying top side of leaf, ammonium salt boosting); assay type: in vivo; conditions: 120 g/ha active ingredient
Description: (§1) Solvent: 7 parts by weight dimethylformamide
(§2) Emulsifier: 1 part by weight alkylaryl polyglycol ether
(§3) An appropriate preparation of active ingredient is prepared by mixing 1 part by weight of active ingredient with the stated amounts of solvent and emulsifier and diluting the concentrate with water to the desired concentration. Where it is necessary to add ammonium salts, phosphonium salts or penetrant, the appropriate amount is added by pipette, after dilution, to each of the ready-prepared product solutions. Single-leaf paprika plants (Capsicum annuum) heavily infested by the green peach aphid (Myzus persicae) are treated by spraying the top side of the leaf (spray volume 600 1/ha) with the preparation of active ingredient at the desired concentration. After the desired time the destruction in % is ascertained. 100% means that all of the animals have been killed; 0% means that no animals have been killed.

[2] = Penetration of active ingredient through enzymatically isolated apple leaf cuticles (Examples A-1, A-2, A-3); assay type: in vitro ADME, apple trees of the Golden Delicious variety; conditions: 500 ppm in DMF/Emulgator W 7:1 (w/w)
Description: This test measured the penetration of active ingredients through enzymatically isolated cuticles of apple leaves.
The leaves used were cut in the fully developed state from apple trees of the Golden Delicious variety. The cuticles were isolated as follows: • first of all, leaf discs marked on the underside with dye and formed by punching were filled by means of vacuum infiltration with a pectinase solution (0.2% to 2% strength) buffered to a pH of between 3 and 4, • then sodium azide was added and • the leaf discs thus treated were left to stand until the original leaf structure broke down and the non-cellular cuticle underwent detachment.
Thereafter only those cuticles from the top leaf sides that were free from stomata and hairs were used. They were washed a number of times in alternation with water and with a buffer solution of pH 7. The clean cuticles obtained were, finally, applied to Teflon plaques, smoothed with a gentle jet of air, and dried.
In the next step the cuticular membranes obtained in this way were placed in stainless steel diffusion cells (i.e. transport chambers) for the purpose of membrane transport investigations. For these investigations the cuticles were placed centrally using tweezers on the edges of the diffusion cells, which were coated with silicone grease, and sealed with a ring, which was likewise greased. The arrangement had been chosen so that the morphological outer face of the cuticles was directed outwards, in other words to the air, while the original inner side was facing the interior of the diffusion cell.
The diffusion cells were filled with a 30% strength ethylene glycol/water solution. Penetration was determined by applying 10 μl of the spray liquor, whose composition is indicated below, to the outer face of each cuticle. The spray liquor is made up using local tap water of medium hardness.
After the spray liquors had been applied, the water was evaporated and the chambers were then inverted and placed in thermostated troughs in which the temperature and atmospheric humidity above the cuticle was adjustable by means of a gentle stream of air onto the cuticle with the spray coating (20° C., 60% rh). At regular intervals an autosampler took aliquots which were assayed for active ingredient by HPLC.
The figures indicated are average values from 8 to 10 measurements.
Example A-2 was carried out in the same way as in Example A-1.
Example A-3 was carried out in the same way as in Example A-1.

[3] = system: Myzus persicae; assay: Myzus persicae test, Example C (spraying top side of leaf, ammonium salt plus penetrant); assay type: in vivo; conditions: 120 g/ha active ingredient
Description: as §1, §2
as §3, with “ready prepared” for “ready-prepared”

[4] = system: Myzus persicae; assay: Myzus persicae test, Example D (sprayed to runoff, ammonium salt boosting); assay type: in vivo
Description: as §1
(§4) Emulsifier: 2 parts by weight alkylaryl polyglycol ether
(§5) An appropriate preparation of active ingredient is prepared by mixing 1 part by weight of active ingredient with the stated amounts of solvent and emulsifier and diluting the concentrate with water to the desired concentration. For the application with ammonium salts or phosphonium salts, these salts are added in a concentration of 1000 ppm to the spray liquor.
Paprika plants (Capsicum annum) heavily infested by the green peach aphid (Myzus persicae) are treated by being. sprayed to runoff with the preparation of active ingredient at the desired concentration. After the desired time the destruction in % is ascertained. 100% means that all of the animals have been killed; 0% means that no animals have been killed.

[5] = system: Aphis gossypii; assay: Aphis gossypii test, Example G (sprayed to runoff, ammonium salt plus penetrant); assay type: in vivo
Description: as §1, §4
(§6) An appropriate preparation of active ingredient is prepared by mixing 1 part by weight of active ingredient with the stated amounts of solvent and emulsifier and diluting the concentrate with emulsifier-containing water to the desired concentration. For the application with ammonium salts or phosphonium salts and penetrants (rapeseed oil methyl esters 500 EW), they are each added in a concentration of 1000 ppm a.i. to the spray liquor.
(§7) Cotton plants (Gossypium hirsutum) heavily infested by the cotton aphid (Aphis gossypii) are sprayed to runoff with the preparation of active ingredient at the desired concentration.
(§8) After the desired time the destruction in % is ascertained. 100% means that all of the aphids have been killed; 0% means than no aphids were killed.

[6] = system: Aphis gossypii; assay: Aphis gossypii test, Example E (sprayed to runoff, ammonium salt boosting); assay type: in vivo
Description: as §1, §4
as §5, with “concentrate with emulsifier-containing water to” for “concentrate with water to”
as §7, §8

[7] = system: Myzus persicae; assay: Myzus persicae test, Example F (sprayed to runoff, ammonium salt plus penetrant); assay type: in vivo
Description: as §1, §4
as §6, with “with” for “with emulsifier-containing”, “penetrant” for “penetrants”, “ester” for “esters”, “ppm” for “ppm a.i.”
After the desired time the destruction in % is ascertained. 100% means that all of the animals have been killed; 0% means that no animals have been killed.

[8] = 4 ppm active ingredient, +AS (1000 ppm)
[9] = 4 ppm active ingredient, no additive
[10] = 20 ppm active ingredient, +AS (1000 ppm)
[11] = 20 ppm active ingredient, no additive
[12] = 0.8 ppm active ingredient, +AS (1000 ppm)
[13] = 0.8 ppm active ingredient, +RME (1000 ppm)
[14] = 0.8 ppm active ingredient, +RME +AS (each 1000 ppm)
[15] = 0.8 ppm active ingredient, no additive
[16] = 4 ppm active ingredient, +RME (1000 ppm)
[17] = 4 ppm active ingredient, +RME +AS (each 1000 ppm)
[18] = 20 ppm active ingredient, +RME (1000 ppm)
[19] = 20 ppm active ingredient, +RME +AS (each 1000 ppm)

Structure (SMILES): CCOC(=O)OC1=C(c2cc(C)ccc2C)C(=O)N[C@]12CC[C@@H](OC)CC2 [Ex. I-1-c-1]
Degree of destruction/% after 3 days ([1]; AS (ammonium sulphate, 1 g/l)): 67% | Degree of destruction/% after 3 days ([1]; No AS): 37%

Penetration after 24 h/% ([2]; Table A-1, EC + AS (ammonium sulphate, 1 g/l)): 2.5% | Penetration after 24 h/% ([2]; Table A-1, EC + RME (1 g/l) + AS (1 g/l)): 41% | Penetration after 24 h/% ([2]; Table A-1, EC + RME (rapeseed oil methyl ester, 1 g/l)): 13.5% | Penetration after 24 h/% ([2]; Table A-1, EC alone, 20° C., 60% rh): 0.6% | Penetration after 24 h/% ([2]; Table A-2, EC + RME (1 g/l) + AT (ammonium thiocyanate, 1 g/l)): 12% | Penetration after 24 h/% ([2]; Table A-2, EC + RME (1 g/l)): 3.5% | Penetration after 24 h/% ([2]; Table A-2, EC alone): <0.2% | Penetration after 24 h/% ([2]; Table A-3, EC + RME (1 g/l) + Ammonium dihydrogen-phosphate (1 g/l)): 42% | Penetration after 24 h/% ([2]; Table A-3, EC + RME (1 g/l) + Diammonium hydrogen-phosphate (1 g/l)): 26% | Penetration after 24 h/% ([2]; Table A-3, EC + RME (1 g/l)): 10%
Structure (SMILES): Cc1cc(Cl)cc(C)c1C1=C(O)C2(CCOCC2)NC1=O [Example I-1-a-1]

Structure (SMILES): Cc1ccc(-c2ccc(Cl)cc2)c(C)c1C1=C(O)C2(CCOCC2)NC1=O [Ex. I-1-a-2]
Degree of destruction/% after 4 days ([3]; RME (1 g/l)): 37% | Degree of destruction/% after 4 days ([3]; RME (1 g/l) + AS (1 g/l)): 92%

Structure (SMILES): COc1cc(C)cc(C)c1-c1c(O)c(C)c(-c2ccccn2)oc1=O [Example I-4-a-1]
Degree of destruction/% after 6 days [4, 8]: 45% | Degree of destruction/% after 6 days [4, 9]: 0% | Degree of destruction/% after 6 days [4, 10]: 95% | Degree of destruction/% after 6 days [4, 11]: 75% | Degree of destruction/% after 6 days [5, 12]: 15% | Degree of destruction/% after 6 days [5, 13]: 0% | Degree of destruction/% after 6 days [5, 14]: 45% | Degree of destruction/% after 6 days [5, 15]: 0% | Degree of destruction/% after 6 days [6, 8]: 40% | Degree of destruction/% after 6 days [6, 9]: 0% | Degree of destruction/% after 6 days [7, 12]: 5% | Degree of destruction/% after 6 days [7, 13]: 0% | Degree of destruction/% after 6 days [7, 14]: 40% | Degree of destruction/% after 6 days [7, 15]: 0%

Structure (SMILES): COC1CCC2(CC1)NC(=O)C(c1c(Cl)cc(Cl)c(C)c1Cl)=C2O (stereo not shown) [Example I-1-a-12]
Degree of destruction/% after 6 days [4, 10]: 65% | Degree of destruction/% after 6 days [4, 11]: 55% | Degree of destruction/% after 6 days [5, 12]: 45% | Degree of destruction/% after 6 days [5, 13]: 45% | Degree of destruction/% after 6 days [5, 14]: 65% | Degree of destruction/% after 6 days [5, 15]: 5% | Degree of destruction/% after 6 days [6, 12]: 45% | Degree of destruction/% after 6 days [6, 15]: 5% | Degree of destruction/% after 6 days [6, 8]: 95% | Degree of destruction/% after 6 days [6, 9]: 65% | Degree of destruction/% after 6 days [7, 8]: 5% | Degree of destruction/% after 6 days [7, 16]: 0% | Degree of destruction/% after 6 days [7, 17]: 50% | Degree of destruction/% after 6 days [7, 9]: 0% | Degree of destruction/% after 6 days [7, 10]: 65% | Degree of destruction/% after 6 days [7, 18]: 70% | Degree of destruction/% after 6 days [7, 19]: 98% | Degree of destruction/% after 6 days [7, 11]: 55%

Structure (SMILES): Cc1ccc(-c2ccc(Cl)cc2)cc1C1=C(O)C(C)(C)OC1=O [Example I-2-a-3]
Degree of destruction/% after 6 days [4, 10]: 15% | Degree of destruction/% after 6 days [4, 11]: 0% | Degree of destruction/% after 6 days [5, 8]: 5% | Degree of destruction/% after 6 days [5, 16]: 0% | Degree of destruction/% after 6 days [5, 17]: 15% | Degree of destruction/% after 6 days [5, 9]: 0% | Degree of destruction/% after 6 days [5, 10]: 30% | Degree of destruction/% after 6 days [5, 18]: 0% | Degree of destruction/% after 6 days [5, 19]: 65% | Degree of destruction/% after 6 days [5, 11]: 0% | Degree of destruction/% after 6 days [6, 10]: 30% | Degree of destruction/% after 6 days [6, 11]: 0% | Degree of destruction/% after 6 days [7, 10]: 15% | Degree of destruction/% after 6 days [7, 18]: 35% | Degree of destruction/% after 6 days [7, 19]: 80% | Degree of destruction/% after 6 days [7, 11]: 0%

Structure (SMILES): Cc1cc(C)c(C2=C(O)C3(CCC(C)CC3)NC2=O)c(C)c1 (stereo not shown) [Example I-1-a-8]
Degree of destruction/% after 6 days [4, 12]: 55% | Degree of destruction/% after 6 days [4, 15]: 20% | Degree of destruction/% after 6 days [5, 12]: 40% | Degree of destruction/% after 6 days [5, 13]: 20% | Degree of destruction/% after 6 days [5, 14]: 60% | Degree of destruction/% after 6 days [5, 15]: 0% | Degree of destruction/% after 6 days [6, 12]: 40% | Degree of destruction/% after 6 days [6, 15]: 0% | Degree of destruction/% after 6 days [7, 12]: 55% | Degree of destruction/% after 6 days [7, 13]: 60% | Degree of destruction/% after 6 days [7, 14]: 80% | Degree of destruction/% after 6 days [7, 15]: 20%

Structure (SMILES): COC1CCC2(CC1)NC(=O)C(c1cc(C)ccc1Br)=C2O (stereo not shown) [Example I-1-a-11]
Degree of destruction/% after 6 days [4, 10]: 70% | Degree of destruction/% after 6 days [4, 11]: 0% | Degree of destruction/% after 6 days [5, 8]: 35% | Degree of destruction/% after 6 days [5, 16]: 45% | Degree of destruction/% after 6 days [5, 17]: 80% | Degree of destruction/% after 6 days [5, 9]: 5% | Degree of destruction/% after 6 days [6, 8]: 35% | Degree of destruction/% after 6 days [6, 9]: 5% | Degree of destruction/% after 6 days [6, 10]: 80% | Degree of destruction/% after 6 days [6, 11]: 45% | Degree of destruction/% after 6 days [7, 8]: 5% | Degree of destruction/% after 6 days [7, 16]: 55% | Degree of destruction/% after 6 days [7, 17]: 99% | Degree of destruction/% after 6 days [7, 9]: 0%
